Source: patent publication EP1108710A1, “GUAIACOXYPROPANOLAMINES WITH ALPHA/BETA-ADRENERGIC BLOCKING ACTIVITY” (Cheng, Ing-Jun, priority 1998, dated 2000)
Like-named read-outs stand apart in the source and are kept apart here.

Key:
[1] = system: Wistar rat's isolated; reserpine pretreated right atrium beating rate and left atrium isometric contractions; test: Direct effect (intrinsic sympathomimetic activity) on reserpine-pretreated isolated atria
Experimental: Pharmacol 311, pp. 205-218 and pp 237-248 (1980). Wistar rats of weight between 200 ∼ 300 gm were used. 18 ∼ 24 hours before the experiment, 5mg/kg of reserpine was injected via abdominal cavity to remove all endogenous catecholamines. Prior experiment, Wistar rats were sacrificed, the heart was immediately removed and placed in Kreb's solution aerated with air mixture and maintained at room temperature. The right and left atria were carefully separated.

[2] = system: guinea pig's isolated; reserpine pretreated tracheal; test: Direct effect (tracheal relaxation, intrinsic sympathomimetic activity) on reserpine-pretreated isolated trachea, with and without ICI 118,551; conditions: cumulative administration 10^-10∼3x10^-6 M, reserpine pretreated
Experimental: Pharmacol 311, pp. 205-218 and pp.237-248 (1980). guinea pigs of weight between 350 ∼ 500 gm were used. 18 ∼ 24 hours before the experiment, 5mg/kg of reserpine was injected via abdominal cavity to remove all endogenous catecholamines. Prior experiment, guinea pigs were sacrificed, the tracheal was immediately removed and placed in Kreb's solution aerated with air mixture and maintained at room temperature of 22 ∼ 25°C. […] […] Then the tissue was repeatedly washed with Kreb's solution. After the tissue had been re-equilibrated for 60 minutes, ICI 118, 551 were administed. After treatment for 30 minutes, compound 1 of similar concentration was administered, and the intrinsic sympathomimetic activity of tracheal was observed.

[3] = biological target: T1, β-adrenoreceptor (β1) (Rattus norvegicus, UniProt P18090); test: β-adrenoceptor blocking action on isolated spontaneously beating right atrium (L-isoproterenol-induced heart rate increase, Schild plot); parameters: species or system Wistar rat; conditions: from the average pA2 difference between right atrium and tracheal
T1 construct: The right and left atria were then separated; from tissue; host or cells: isolated rat right and left atria
Experimental: The right and left atria were then separated. The spontaneously-beating right atria was clipped on both end by heart shaped clips, where one end was fixed at the bottom of 10ml of tissue bath made of physiological saline solution, and temperature maintained at 37°C. The other end of the atria was connected to a force transducer, and isometric contractions and beating rate of the right atria were recorded by COULBOURN AT-High-Speed VideoFigure. […] Cumulative administration interval was when the previous concentration reached its greatest effect, the next concentration would be immediately given.

[4] = system: Wistar rat's isolated thoracic aorta; test: Isolated thoracic aorta contraction caused by 75mM KCl
Experimental: After sacrificing Wistar rat of weight between 300 - 500 gm, the thoracic aorta was immediately removed and placed in cold Kreb's solution. The fatty connecting tissue surrounding the vessel wall was removed and the thoracic aorta was cut into rings of length 5 mm. The two ends of each ring was pieced and fixed with "Z" shaped platinum wires. […] When the results had been recorded for at least 35 minutes, the aorta was repeatedly rinsed with normal Kreb's solution. […] 30 minutes later, 75mM KCl was added again to induce vasoconstriction.

[5] = system: normotensive rats; test: Heart rate and blood pressure in living (anaesthetized) rat, intravenous injection; format: in vivo, Wistar rats; conditions: lmg/kg; via femoral vein, rats
Excerpt: Male Wistar rats, weighing 200 ∼ 300g were abdominal anaesthetized with pentobarbital sodium. Tracheal was cannulated to maintain normal respiration. Polyethylene tube was inserted into the left femoral vein to facilitate drug administration. A 3-way stopcock was used, with one end connected to a syringe for drug injection, while the other end was connected to the syringe filled with physiological saline. The latter was used to prevent residual drugs in the polyethylene tube after injection, which would affect experimental accuracy.
The right femoral artery was also inserted with polyethylene, and a 3-way stopcock was used tool, where one end was connected to heparin solution to prevent embolism. The other end was connected to a Disposable Diaphragm Dome, TA1019, and linked to a transducer. Through an amplifier, a recorder recorded the overall and average arterial pressure; heart rate to evaluate the effect of drug on blood pressure and heart rate.

[6] = 10^-8M, thoracic aorta contraction caused by 75mM KCl

T1 sequence (P18090 whole entry): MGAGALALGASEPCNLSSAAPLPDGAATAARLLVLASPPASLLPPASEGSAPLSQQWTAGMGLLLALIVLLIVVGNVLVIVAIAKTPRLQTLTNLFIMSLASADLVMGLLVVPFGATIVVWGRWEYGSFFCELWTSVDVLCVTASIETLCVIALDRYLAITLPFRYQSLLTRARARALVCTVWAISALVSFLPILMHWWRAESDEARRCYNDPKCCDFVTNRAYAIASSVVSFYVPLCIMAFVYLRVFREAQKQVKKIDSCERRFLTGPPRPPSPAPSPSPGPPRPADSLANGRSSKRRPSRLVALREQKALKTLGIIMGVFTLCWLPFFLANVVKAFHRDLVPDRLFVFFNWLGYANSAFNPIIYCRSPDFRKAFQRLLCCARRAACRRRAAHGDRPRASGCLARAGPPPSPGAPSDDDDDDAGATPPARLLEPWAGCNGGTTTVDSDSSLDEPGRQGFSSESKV

Compound	Aorta Relaxation [4, 6] [%]	Lowering of Blood Pressure [5] [mm Hg]	Reduction of Heart Rate [5] [beats/min]	also measured
CC(C)NCC(O)COc1ccc(CC(N)=O)cc1 (stereo not shown) [ATENOLOL]				atrial blocking effect ([1]; 3x10-4M): almost does not have atrial blocking effect
CC(C)NC[C@H](O)c1ccc(O)c(O)c1 [L-isoproterenol]				tracheal relaxation effect [2]: dose-dependant tracheal relaxation effect
CC(C)NCC(O)COc1cccc2ccccc12 (stereo not shown) [PROPRANOLOL]				tracheal relaxation effect [2]: did not produce any relaxation effect; direct effect on atrial tissue ([1]; 10^-4∼10^-3 M): could inactivate or unexcited the tissue; direct effect on right atrium beating rate and left atrium isometric contractions ([1]; cumulative administration, reserpine pretreated): could retard the beating rate and isometric contractions
COc1cc(C=O)ccc1OCC(O)CNC(C)(C)C (stereo not shown) [VANIDILOL, reference compound]				selectivity ratio of β1 type adrenoceptor (effect on right atrium relative to tracheal) [3]: 0.98 X; tracheal relaxation effect [2]: dose-dependant tracheal relaxation effect
COC(=O)C1=C(C)NC(C)=C(C(=O)OC)C1c1ccc(OCC(O)CNCCOc2ccccc2OC)c(OC)c1 (stereo not shown) [compound 2, 4-{{N-{4-[2-hydroxy-3-(2-methoxy-1-oxyethyl-aminobenzene)propoxy]-3-methoxy}phenyl}}-2,6-dimethyl-3,5-dicarbo-methoxy-1,4-dihydropyridine]	40± 4	75± 2	35± 4	
CCOC(=O)C1=C(C)NC(C)=C(C(=O)OCC)C1c1ccc(OCC(O)CNCCOc2ccccc2OC)c(OC)c1 (stereo not shown) [compound 3, 4-{{N-{4-[2-hydroxy-3-(2-methoxy-1-oxyethyl-aminobenzene)propoxy]-3-methoxy}phenyl}}-2,6-dimethyl-3,5-dicarboethoxy-1,4-dihydropyridine]	41± 2	78± 5	37± 5	
CCOC(=O)C1=C(C)NC(C)=C(C(=O)OCC)C1c1cc(Cl)ccc1OCC(O)CNC(C)(C)C (stereo not shown) [compound 4]	35± 5	76± 6	33± 3	
CCCCNCC(O)COc1ccc(Cl)cc1C1C(C(=O)OCC)=C(C)NC(C)=C1C(=O)OCC (stereo not shown) [compound 5]	33± 2	74± 4	32± 4	
CCOC(=O)C1=C(C)NC(C)=C(C(=O)OCC)C1c1cc(Cl)ccc1OCC(O)CNCCOc1ccccc1OC (stereo not shown) [compound 6]		80± 3	35± 5	Aorta Relaxation [4]: 45± 4%
CCOC(=O)C1=C(C)NC(C)=C(C(=O)OCC)C1c1ccc(OCC(O)CNCCOc2ccccc2OC)c(Cl)c1 (stereo not shown) [compound 7, 4-{{N-{4-[2-hydroxy-3-(2-methoxy-1-oxyethylaminobenzene)propoxy]-3-choloro}phenyl}}-2,6-dimethyl-3,5-dicarbo-ethoxy-1,4-dihydropyridine]	45± 5	82± 6	40± 2	
CCOC(=O)C1=C(C)NC(C)=C(C(=O)OCC)C1c1cc([N+](=O)[O-])ccc1OCC(O)CNC(C)(C)C (stereo not shown) [compound 8]	43± 3	80± 3	40± 4	
CCOC(=O)C1=C(C)NC(C)=C(C(=O)OCC)C1c1cc([N+](=O)[O-])ccc1OCC(O)CNCCOc1ccccc1OC (stereo not shown) [compound 9]	47± 2	85± 6	40± 5	
